In US10273226B2, “Pyrazolyl-heteroarylamides as pesticides” (Bayer Animal Health GmbH, priority 2014, dated 2019):

Each molecule was assayed on Lucilia cuprina (assay: Lucilia cuprina test). Conditions: application rate 100 ppm; L1 larvae; after 2 days.
Assay type: in vivo
Method: (§1) Solvent: dimethyl sulphoxide
To produce an appropriate active ingredient formulation, 10 mg of active ingredient are mixed with 0.5 ml of dimethyl sulphoxide, and the concentrate is diluted with water to the desired concentration.
About 20 L1 larvae of the Australian sheep blowfly (Lucilia cuprina) are transferred into a test vessel containing minced horsemeat and the active ingredient preparation of the desired concentration.
After 2 days, the kill in % is determined. 100% means that all the larvae have been killed and 0% means that none of the larvae have been killed.
In the case of `Cn1nc(C(F)(F)C(F)(F)F)c(C(F)(F)F)c1-n1cc(-c2cccc(NC(=O)c3cc(Cl)nc(Cl)c3)c2)cn1` [Example 1-011], the “efficacy (kill in %)” value is reported as 100%. `Cn1nc(C(F)(F)C(F)(F)F)c(C(F)(F)F)c1-n1cc(-c2cccc(NC(=O)c3c(F)cccc3F)c2)cn1` [Example 1-015] was tested, and the “efficacy (kill in %)” value was 100%. In the case of `Cn1nc(C(F)(F)C(F)(F)F)c(C(F)(F)F)c1-n1cc(-c2ccc(F)c(NC(=O)c3ccc4c(c3)OCO4)c2)cn1` [Example 1-093], the “efficacy (kill in %)” value is reported as 100%. With `C[C@@H](F)C(=O)Nc1cc(-c2cnn(-c3c(C(F)(F)F)c(C(F)(F)C(F)(F)F)nn3C)c2)ccc1F` [Example 1-066] the “efficacy (kill in %)” value was 80%. In the case of `Cn1nc(C(F)(F)C(F)(F)F)c(C(F)(F)F)c1-n1cc(-c2cccc(NC(=O)C3(C#N)CC3)c2)cn1` [Example 1-029], the “efficacy (kill in %)” value is reported as 100%.

What follows are molecules tested on Ctenocephalides felis (assay: Ctenocephalides felis in vitro contact test with adult cat fleas). Conditions: application rate 5 μg/cm^2 (500 g/ha); after 48 h; fleas dead or moribund.
Assay type: in vivo
Method: Ctenocephalides felis—In Vitro Contact Tests with Adult Cat Fleas
(§2) For the coating of the test tubes, 9 mg of active ingredient are first dissolved in 1 ml of acetone p.a. and then diluted to the desired concentration with acetone p.a. 250 μl of the solution are distributed homogeneously on the inner walls and base of a 25 ml test tube by turning and rocking on an orbital shaker (rocking rotation at 30 rpm for 2 h). With 900 ppm active ingredient solution and internal surface 44.7 cm^2, given homogeneous distribution, an area-based dose of 5 μg/cm^2 is achieved.
After the solvent has evaporated off, the tubes are populated with 5-10 adult cat fleas (Ctenocephalides felis), sealed with a perforated plastic lid and incubated in a horizontal position at room temperature and ambient humidity. After 48 h, efficacy is determined. To this end, the test tubes are stood upright and the fleas are knocked to the base of the tube. Fleas which remain motionless at the base or move in an uncoordinated manner are considered to be dead or moribund.
100% efficacy means that all the fleas were dead or moribund. 0% efficacy means that no fleas were harmed.
Work on `C[C@@H](F)C(=O)Nc1cc(-c2cnn(-c3c(C(F)(F)F)c(C(F)(F)C(F)(F)F)nn3C)c2)ccc1F` [Example 1-066] yielded an efficacy of 100%.

The molecules below were run on Boophilus microplus (assay: Boophilus microplus injection test). Conditions: application rate 20 μg/animal; injection into abdomen; assessed after 7 days.
Assay type: in vivo
Method: Boophilus microplus—Injection Test
as §1
To produce an appropriate active ingredient formulation, 10 mg of active ingredient are mixed with 0.5 ml of solvent and the concentrate is diluted with solvent to the desired concentration.
1 μl of the active ingredient solution is injected into the abdomen of 5 engorged adult female cattle ticks (Boophilus microplus). The animals are transferred into dishes and kept in a climate-controlled room.
Efficacy is assessed after 7 days by laying of fertile eggs. Eggs which are not visibly fertile are stored in a climate-controlled cabinet until the larvae hatch after about 42 days. An efficacy of 100% means that none of the ticks has laid any fertile eggs; 0% means that all the eggs are fertile.
In the case of `Cn1nc(C(F)(F)C(F)(F)F)c(C(F)(F)F)c1-n1cc(-c2cccc(NC(=O)c3cc(Cl)nc(Cl)c3)c2)cn1` [Example 1-011], the “efficacy (laying of fertile eggs)” value is reported as 100%. `Cn1nc(C(F)(F)C(F)(F)F)c(C(F)(F)F)c1-n1cc(-c2cccc(NC(=O)c3c(F)cccc3F)c2)cn1` [Example 1-015] was tested, and the “efficacy (laying of fertile eggs)” value was 100%. For `Cn1nc(C(F)(F)C(F)(F)F)c(C(F)(F)F)c1-n1cc(-c2ccc(F)c(NC(=O)c3ccc4c(c3)OCO4)c2)cn1` [Example 1-093], the “efficacy (laying of fertile eggs)” value was 100%. In the case of `C[C@@H](F)C(=O)Nc1cc(-c2cnn(-c3c(C(F)(F)F)c(C(F)(F)C(F)(F)F)nn3C)c2)ccc1F` [Example 1-066], the “efficacy (laying of fertile eggs)” value is reported as 100%. `Cn1nc(C(F)(F)C(F)(F)F)c(C(F)(F)F)c1-n1cc(-c2cccc(NC(=O)C3(C#N)CC3)c2)cn1` [Example 1-029] was tested, and the “efficacy (laying of fertile eggs)” value was 100%.

The molecules below were run on Rhipicephalus sanguineus (assay: Rhipicephalus sanguineus in vitro contact test with adult brown dog ticks). Conditions: application rate 5 μg/cm^2 (500 g/ha); after 48 h; ticks dead or moribund.
Assay type: in vivo
Method: Rhipicephalus sanguineus—In Vitro Contact Tests with Adult Brown Dog Ticks
as §2
After the solvent has evaporated off, the tubes are populated with 5-10 adult dog ticks (Rhipicephalus sanguineus), sealed with a perforated plastic lid and incubated in a horizontal position in the dark at room temperature and ambient humidity. After 48 h, efficacy is determined. To this end, the ticks are knocked to the floor of the tube and incubated on a hotplate at 45-50° C. for not more than 5 min. Ticks which remain motionless on the floor or move in such an uncoordinated manner that they are unable to deliberately avoid the heat by climbing upwards are considered to be dead or moribund.
An efficacy of 100% means that all the ticks were dead or moribund. 0% efficacy means that none of the ticks had been harmed.
For `Cn1nc(C(F)(F)C(F)(F)F)c(C(F)(F)F)c1-n1cc(-c2cccc(NC(=O)c3cc(Cl)nc(Cl)c3)c2)cn1` [Example 1-011], the efficacy was 80%. `Cn1nc(C(F)(F)C(F)(F)F)c(C(F)(F)F)c1-n1cc(-c2cccc(NC(=O)c3c(F)cccc3F)c2)cn1` [Example 1-015] gave an efficacy of 80%. Molecule `Cn1nc(C(F)(F)C(F)(F)F)c(C(F)(F)F)c1-n1cc(-c2ccc(F)c(NC(=O)c3ccc4c(c3)OCO4)c2)cn1` [Example 1-093] has an efficacy of 100%. With `C[C@@H](F)C(=O)Nc1cc(-c2cnn(-c3c(C(F)(F)F)c(C(F)(F)C(F)(F)F)nn3C)c2)ccc1F` [Example 1-066] the efficacy was 100%. `Cn1nc(C(F)(F)C(F)(F)F)c(C(F)(F)F)c1-n1cc(-c2cccc(NC(=O)C3(C#N)CC3)c2)cn1` [Example 1-029] showed an efficacy of 100%.

Each molecule was assayed on Ctenocephalides felis (assay: Ctenocephalides felis oral test). Conditions: application rate 100 ppm in citrated cattle blood; after 2 days.
Assay type: in vivo
Method: Ctenocephalides felis—Oral Test
as §1
For the purpose of producing an appropriate active ingredient formulation, 10 mg of active ingredient are mixed with 0.5 ml of dimethyl sulphoxide. Dilution with citrated cattle blood gives the desired concentration.
About 20 unfed adult cat fleas (Ctenocephalides felis) are placed into a chamber which is closed at the top and bottom with gauze. A metal cylinder whose bottom end is closed with parafilm is placed onto the chamber. The cylinder contains the blood/active ingredient preparation, which can be imbibed by the fleas through the parafilm membrane.
After 2 days, the kill in % is determined. 100% means that all of the fleas have been killed; 0% means that none of the fleas have been killed.
With `Cn1nc(C(F)(F)C(F)(F)F)c(C(F)(F)F)c1-n1cc(-c2cccc(NC(=O)c3cc(Cl)nc(Cl)c3)c2)cn1` [Example 1-011] the “efficacy (kill in %)” value was 100%. For `Cn1nc(C(F)(F)C(F)(F)F)c(C(F)(F)F)c1-n1cc(-c2cccc(NC(=O)c3c(F)cccc3F)c2)cn1` [Example 1-015], the “efficacy (kill in %)” value was 100%. In the case of `Cn1nc(C(F)(F)C(F)(F)F)c(C(F)(F)F)c1-n1cc(-c2ccc(F)c(NC(=O)c3ccc4c(c3)OCO4)c2)cn1` [Example 1-093], the “efficacy (kill in %)” value is reported as 100%. For `C[C@@H](F)C(=O)Nc1cc(-c2cnn(-c3c(C(F)(F)F)c(C(F)(F)C(F)(F)F)nn3C)c2)ccc1F` [Example 1-066], the “efficacy (kill in %)” value was 100%. For `Cn1nc(C(F)(F)C(F)(F)F)c(C(F)(F)F)c1-n1cc(-c2cccc(NC(=O)C3(C#N)CC3)c2)cn1` [Example 1-029], the “efficacy (kill in %)” value was 100%.

Each molecule was assayed on Spodoptera frugiperda (assay: Spodoptera frugiperda spray test). Conditions: application rate 100 g/ha; caterpillars; after 7 days.
Assay type: in vivo
Method: Spodoptera frugiperda—Spray Test
(§3) To produce an appropriate active ingredient formulation, 1 part by weight of active ingredient is dissolved using the specified parts by weight of solvent and made up with water containing an emulsifier concentration of 1000 ppm until the desired concentration is attained. To produce further test concentrations, the preparation is diluted with emulsifier-containing water.
Leaf discs of maize (Zea mays) are sprayed with an active ingredient formulation of the desired concentration and, after drying, populated with caterpillars of the armyworm (Spodoptera frugiperda).
After 7 days, efficacy in % is determined. 100% means that all the caterpillars have been killed; 0% means that no caterpillars have been killed.
For `Cn1nc(C(F)(F)C(F)(F)F)c(C(F)(F)F)c1-n1cc(-c2cccc(NC(=O)c3c(F)cccc3F)c2)cn1` [Example 1-015], the efficacy was 100%. Work on `Cn1nc(C(F)(F)C(F)(F)F)c(C(F)(F)F)c1-n1cc(-c2ccc(F)c(NC(=O)c3ccc4c(c3)OCO4)c2)cn1` [Example 1-093] yielded an efficacy of 100%.

Same assay, conditions: application rate 500 g/ha; caterpillars; after 7 days
In the case of `Cn1nc(C(F)(F)C(F)(F)F)c(C(F)(F)F)c1-n1cc(-c2cccc(NC(=O)C3(C#N)CC3)c2)cn1` [Example 1-029], the efficacy is reported as 100%.

These molecules were tested on Tetranychus urticae (assay: Tetranychus urticae spray test, OP-resistant). Conditions: application rate 100 g/ha; after 6 days.
Assay type: in vivo
Method: Tetranychus urticae—Spray Test, OP-Resistant
as §3
Discs of bean leaves (Phaseolus vulgaris) infested by all stages of the greenhouse red spider mite (Tetranychus urticae) are sprayed with an active ingredient formulation of the desired concentration.
After 6 days, efficacy in % is determined. 100% means that all the spider mites have been killed; 0% means that none of the spider mites have been killed.
Work on `Cn1nc(C(F)(F)C(F)(F)F)c(C(F)(F)F)c1-n1cc(-c2cccc(NC(=O)c3cc(Cl)nc(Cl)c3)c2)cn1` [Example 1-011] yielded an efficacy of 90%. For `Cn1nc(C(F)(F)C(F)(F)F)c(C(F)(F)F)c1-n1cc(-c2cccc(NC(=O)c3c(F)cccc3F)c2)cn1` [Example 1-015], the efficacy was 100%. `Cn1nc(C(F)(F)C(F)(F)F)c(C(F)(F)F)c1-n1cc(-c2ccc(F)c(NC(=O)c3ccc4c(c3)OCO4)c2)cn1` [Example 1-093] showed an efficacy of 100%. For `Cn1nc(C(F)(F)C(F)(F)F)c(C(F)(F)F)c1-n1cc(-c2cccc(NC(=O)C3(C#N)CC3)c2)cn1` [Example 1-029], the efficacy was 100%.

These molecules were tested on Phaedon cochleariae (assay: Phaedon cochleariae spray test). Conditions: application rate 100 g/ha; larvae; after 7 days.
Assay type: in vivo
Method: Phaedon cochleariae—Spray Test
as §3
Discs of Chinese cabbage leaves (Brassica pekinensis) are sprayed with an active ingredient formulation of the desired concentration and, after drying, populated with larvae of the mustard beetle (Phaedon cochleariae).
After 7 days, efficacy in % is determined. 100% means that all the beetle larvae have been killed; 0% means that no beetle larvae have been killed.
With `Cn1nc(C(F)(F)C(F)(F)F)c(C(F)(F)F)c1-n1cc(-c2cccc(NC(=O)c3cc(Cl)nc(Cl)c3)c2)cn1` [Example 1-011] the efficacy was 100%. `Cn1nc(C(F)(F)C(F)(F)F)c(C(F)(F)F)c1-n1cc(-c2cccc(NC(=O)c3c(F)cccc3F)c2)cn1` [Example 1-015] showed an efficacy of 100%. With `Cn1nc(C(F)(F)C(F)(F)F)c(C(F)(F)F)c1-n1cc(-c2ccc(F)c(NC(=O)c3ccc4c(c3)OCO4)c2)cn1` [Example 1-093] the efficacy was 100%.

Same assay, conditions: application rate 500 g/ha; larvae; after 7 days
Molecule `Cn1nc(C(F)(F)C(F)(F)F)c(C(F)(F)F)c1-n1cc(-c2cccc(NC(=O)C3(C#N)CC3)c2)cn1` [Example 1-029] has an efficacy of 83%.
